# Active and inactive are the calls of the source. The calls are words filed in the database; no cut-off is given here.
# Experiments:
# [1] = Cytotoxicity against C57BL/6 mouse CD4+ T cells assessed as increase in cell death at 0.5 to 100 nM incubated for 4 days by Live/Dead staining based flow cytometry; format: toxicity; settings: 96 h, 0.1 µM, dose 0.5-100 nM, time 4 day
# [2] = tested on: CD4+ T cell; experiment: Immunosuppressive activity in C57BL/6 mouse CD4+ T cells co-cultured with allogeneic bone marrow-derived BALB/c mouse dendritic cells assessed as inhibition of CD4+ T cell proliferation at 1 nM incubated for 4 days by CellTrace Violet staining based flow cytometry; format: functional; settings: time 4.0 day
# [3] = tested on: CD4+ T cell; experiment: Immunosuppressive activity in C57BL/6 mouse CD4+ T cells co-cultured with allogeneic bone marrow-derived BALB/c mouse dendritic cells assessed as reduction in CD4+ T cell numbers at cell cycle 4 at 5 nM incubated for 4 days by CellTrace Violet staining based flow cytometry; format: functional; settings: time 4.0 day
# [4] = Cytotoxicity against C57BL/6 mouse CD4+ T cells assessed as increase in cell death at 5 nM incubated for 4 days by Live/Dead staining based flow cytometry; format: toxicity; settings: 96 h, 0.005 µM, time 4 day
# [5] = Cytotoxicity against C57BL/6 mouse CD4+ T cells assessed as increase in cell death at >10 nM incubated for 4 days by Live/Dead staining based flow cytometry; format: toxicity; settings: 96 h, 0.01 µM, time 4 day
Structure (SMILES),Activity [1],inhibition [2],Activity [3],Activity [4],Activity [5]
C=CC[C@@H]1/C=C(\C)C[C@H](C)C[C@H](OC)[C@H]2O[C@@](O)(C(=O)C(=O)N3CCCC[C@H]3C(=O)O[C@H](/C(C)=C/[C@@H]3CC[C@@H](O)[C@H](OC)C3)[C@H](C)[C@@H](O)CC1=O)[C@H](C)C[C@@H]2OC [TACROLIMUS ANHYDROUS],Toxic,Active,,,
C#CC[C@@H]1/C=C(\C)C[C@H](C)C[C@H](OC)[C@H]2O[C@@](O)(C(=O)C(=O)N3CCCC[C@H]3C(=O)O[C@H](/C(C)=C/[C@@H]3CC[C@@H](O)[C@H](OC)C3)[C@H](C)[C@@H](O)CC1=O)[C@H](C)C[C@@H]2OC,,,Active,Non-toxic,Toxic

# Reference: ChEMBL document CHEMBL6103644, “Efficient and Selective Biosynthesis of a Precursor-Directed FK506 Analogue: Paving the Way for Click Chemistry” (J Nat Prod, 2025)
